Experimental data reported in PMC5218480 (PLoS ONE, 2017).

Tested on: MV-4-11 cells
Assay: Gene expression microarray analysis (Affymetrix PrimeView) and GSEA
Format: cell-based, human
Design: RFU PODN (11730768_x_at) / Fold change /veh PODN (11730768_x_at) / RFU LINC00158 (11744669_a_at) / Fold change /veh LINC00158 (11744669_a_at) / RFU DUSP10 (11751237_a_at) / Fold change /veh DUSP10 (11751237_a_at) / RFU ID3 (11757404_x_at) / Fold change /veh ID3 (11757404_x_at) / RFU PLEKHG5 (11737974_s_at) / Fold change /veh PLEKHG5 (11737974_s_at) / RFU LRRC4B (11730491_at) / Fold change /veh LRRC4B (11730491_at) / RFU GIMAP4 (11747438_a_at) / Fold change /veh GIMAP4 (11747438_a_at) / RFU KRT8 (11758183_x_at) / Fold change /veh KRT8 (11758183_x_at) / RFU CNN1 (11734310_a_at) / Fold change /veh CNN1 (11734310_a_at) / RFU VPS37D (11726825_at) / Fold change /veh VPS37D (11726825_at) / RFU C10orf10 (11716522_x_at) / Fold change /veh C10orf10 (11716522_x_at) / RFU KIR2DL2 /// KIR2DL4 /// KIR2DL5A /// KIR2DL5B /// KIR2DS1 /// KIR2DS2 /// KIR2DS3 /// KIR2DS4 /// KIR3DL3 /// KIR3DL3 /// KIR3DS1 (11738374_at) / Fold change /veh KIR2DL2 /// KIR2DL4 /// KIR2DL5A /// KIR2DL5B /// KIR2DS1 /// KIR2DS2 /// KIR2DS3 /// KIR2DS4 /// KIR3DL3 /// KIR3DL3 /// KIR3DS1 (11738374_at) / RFU C1QL1 (11718748_at) / Fold change /veh C1QL1 (11718748_at) / RFU TMPRSS4 (11747572_a_at) / Fold change /veh TMPRSS4 (11747572_a_at) / RFU HAMP (11756126_x_at) / Fold change /veh HAMP (11756126_x_at) / RFU RNFT2 (11725882_a_at) / Fold change /veh RNFT2 (11725882_a_at) / RFU NR4A2 (11747474_a_at) / Fold change /veh NR4A2 (11747474_a_at) / RFU ABCC12 (11746883_a_at) / Fold change /veh ABCC12 (11746883_a_at) / RFU TMEM136 (11760407_x_at) / Fold change /veh TMEM136 (11760407_x_at) / RFU CLDN22 /// WWC2 (11732394_at) / Fold change /veh CLDN22 /// WWC2 (11732394_at) / RFU HLA-DPB1 (11760878_x_at) / Fold change /veh HLA-DPB1 (11760878_x_at) / RFU SPINT1 (11716480_a_at) / Fold change /veh SPINT1 (11716480_a_at) / RFU GAP43 (11754022_s_at) / Fold change /veh GAP43 (11754022_s_at) / RFU A4GNT (11735810_at) / Fold change /veh A4GNT (11735810_at) / RFU PRB3 (11715151_x_at) / Fold change /veh PRB3 (11715151_x_at) / RFU TUBB4B (11761932_at) / Fold change /veh TUBB4B (11761932_at) / RFU CAPN14 (11732068_a_at) / Fold change /veh CAPN14 (11732068_a_at) / RFU TMCC2 (11721928_a_at) / Fold change /veh TMCC2 (11721928_a_at) / RFU IRGQ (11745062_a_at) / Fold change /veh IRGQ (11745062_a_at) / RFU FAM174B (11720279_a_at) / Fold change /veh FAM174B (11720279_a_at) / RFU TMPRSS4 (11748680_a_at) / Fold change /veh TMPRSS4 (11748680_a_at) / RFU FAM212B (11763350_a_at) / Fold change /veh FAM212B (11763350_a_at) / RFU PLEKHG5 (11743358_a_at) / Fold change /veh PLEKHG5 (11743358_a_at) / RFU ZSCAN30 (11745921_a_at) / Fold change /veh ZSCAN30 (11745921_a_at) / RFU CMKLR1 (11741424_a_at) / Fold change /veh CMKLR1 (11741424_a_at) / RFU LOC101060620 /// MAPK8IP1 (11723275_at) / Fold change /veh LOC101060620 /// MAPK8IP1 (11723275_at) / RFU SPTSSB (11747773_x_at) / Fold change /veh SPTSSB (11747773_x_at) / RFU PRSS12 (11739890_at) / Fold change /veh PRSS12 (11739890_at) / RFU BIN1 (11741810_x_at) / Fold change /veh BIN1 (11741810_x_at) / RFU WNT11 (11732464_a_at) / Fold change /veh WNT11 (11732464_a_at) / RFU C10orf10 (11716521_a_at) / Fold change /veh C10orf10 (11716521_a_at) / RFU C5orf56 (11738089_at) / Fold change /veh C5orf56 (11738089_at) / RFU CYB561 (11721691_x_at) / Fold change /veh CYB561 (11721691_x_at) / RFU ANKRD19P (11752326_a_at) / Fold change /veh ANKRD19P (11752326_a_at) / RFU OR2T12 /// OR2T33 /// OR2T8 (11738714_s_at) / Fold change /veh OR2T12 /// OR2T33 /// OR2T8 (11738714_s_at) / RFU VCAN (11748164_a_at) / Fold change /veh VCAN (11748164_a_at) / RFU JSRP1 (11732532_at) / Fold change /veh JSRP1 (11732532_at) / RFU KRTAP10-11 (11738290_x_at) / Fold change /veh KRTAP10-11 (11738290_x_at) / RFU MYO3A (11730013_a_at) / Fold change /veh MYO3A (11730013_a_at) / RFU EBF3 (11725865_a_at) / Fold change /veh EBF3 (11725865_a_at) / RFU CAMK2N1 (11719241_x_at) / Fold change /veh CAMK2N1 (11719241_x_at) / RFU C5orf56 (11738088_a_at) / Fold change /veh C5orf56 (11738088_a_at) / RFU OLFML3 (11715873_a_at) / Fold change /veh OLFML3 (11715873_a_at) / RFU LOC100653217 /// NTM (11731650_a_at) / Fold change /veh LOC100653217 /// NTM (11731650_a_at) / RFU MAPK11 (11762145_a_at) / Fold change /veh MAPK11 (11762145_a_at) / RFU FIZ1 (11724087_x_at) / Fold change /veh FIZ1 (11724087_x_at) / RFU OASL (11726364_x_at) / Fold change /veh OASL (11726364_x_at) / RFU SOX15 (11748057_x_at) / Fold change /veh SOX15 (11748057_x_at) / RFU CD79A (11719716_a_at) / Fold change /veh CD79A (11719716_a_at) / RFU HIST1H1D (11736915_at) / Fold change /veh HIST1H1D (11736915_at) / RFU CASKIN2 (11723855_a_at) / Fold change /veh CASKIN2 (11723855_a_at) / RFU LOC730098 (11760151_x_at) / Fold change /veh LOC730098 (11760151_x_at) / RFU OR4N2 (11742367_at) / Fold change /veh OR4N2 (11742367_at) / RFU PRRT2 (11749266_a_at) / Fold change /veh PRRT2 (11749266_a_at) / RFU SNX32 (11753110_a_at) / Fold change /veh SNX32 (11753110_a_at) / RFU CDHR5 (11726645_a_at) / Fold change /veh CDHR5 (11726645_a_at) / RFU RCAN1 (11760418_a_at) / Fold change /veh RCAN1 (11760418_a_at) / RFU FAM167A (11723789_a_at) / Fold change /veh FAM167A (11723789_a_at) / RFU FAM26E (11764081_at) / Fold change /veh FAM26E (11764081_at) / RFU ISYNA1 (11749810_s_at) / Fold change /veh ISYNA1 (11749810_s_at) / RFU ACY1 (11761880_at) / Fold change /veh ACY1 (11761880_at) / RFU 11764098_at / Fold change /veh 11764098_at / RFU SAMD14 (11745864_x_at) / Fold change /veh SAMD14 (11745864_x_at) / RFU NPB (11741838_a_at) / Fold change /veh NPB (11741838_a_at) / RFU TMPRSS6 (11731388_a_at) / Fold change /veh TMPRSS6 (11731388_a_at) / RFU KRTAP10-2 (11738614_at) / Fold change /veh KRTAP10-2 (11738614_at) / RFU ARHGAP8 /// PRR5-ARHGAP8 (11727945_x_at) / Fold change /veh ARHGAP8 /// PRR5-ARHGAP8 (11727945_x_at) / RFU KRTAP5-7 /// NADSYN1 (11734609_at) / Fold change /veh KRTAP5-7 /// NADSYN1 (11734609_at) / RFU RASL12 (11751679_a_at) / Fold change /veh RASL12 (11751679_a_at) / RFU CDKN2B (11736163_a_at) / Fold change /veh CDKN2B (11736163_a_at) / RFU PRF1 (11729649_at) / Fold change /veh PRF1 (11729649_at) / RFU, ZNF638 /// ZNF638-IT1 / Fold change vs veh, ZNF638 /// ZNF638-IT1 / RFU, PANK3 / Fold change vs veh, PANK3 / RFU, SH3YL1 / Fold change vs veh, SH3YL1 / RFU, ZEB2 / Fold change vs veh, ZEB2 / RFU, NRIP1 / Fold change vs veh, NRIP1 / RFU, PTTG1IP / Fold change vs veh, PTTG1IP / RFU, CAPN2 / Fold change vs veh, CAPN2 / RFU, MED14 / Fold change vs veh, MED14 / RFU, SNORA58 / Fold change vs veh, SNORA58 / RFU, C1orf63 / Fold change vs veh, C1orf63 / RFU, LRRFIP1 / Fold change vs veh, LRRFIP1 / RFU, NDUFAF7 / Fold change vs veh, NDUFAF7 / RFU, SLC12A2 / Fold change vs veh, SLC12A2 / RFU, IBTK / Fold change vs veh, IBTK / RFU, ESF1 / Fold change vs veh, ESF1 / Fold change vs veh, TMEM50B / RFU, TAOK1 / Fold change vs veh, TAOK1 / RFU, ACBD3 / Fold change vs veh, ACBD3 / RFU, TMA16 / Fold change vs veh, TMA16 / RFU, RWDD3 / Fold change vs veh, RWDD3 / RFU, BCAT1 / Fold change vs veh, BCAT1 / RFU, EDEM3 / Fold change vs veh, EDEM3 / RFU, TMEM33 / Fold change vs veh, TMEM33 / RFU, WDR75 / Fold change vs veh, WDR75 / RFU, AHCTF1 / Fold change vs veh, AHCTF1 / RFU, TFRC / Fold change vs veh, TFRC / RFU, ZDHHC17 / Fold change vs veh, ZDHHC17 / RFU, NOM1 / Fold change vs veh, NOM1 / RFU, ARL8B / Fold change vs veh, ARL8B / RFU, ZBTB11 / Fold change vs veh, ZBTB11 / RFU, TAMM41 / Fold change vs veh, TAMM41 / RFU, KIAA1704 /// LOC100996395 / Fold change vs veh, KIAA1704 /// LOC100996395 / RFU, ING1 / Fold change vs veh, ING1 / RFU, TRMT61B / Fold change vs veh, TRMT61B / RFU, FUBP3 / Fold change vs veh, FUBP3 / RFU, TP53 / Fold change vs veh, TP53 / RFU, TNKS2 / Fold change vs veh, TNKS2 / RFU, ZFP14 / Fold change vs veh, ZFP14 / RFU, ACTR2 / Fold change vs veh, ACTR2 / RFU, PPP3R1 / Fold change vs veh, PPP3R1 / RFU, PIK3R1 / Fold change vs veh, PIK3R1 / RFU, HNRNPA1 / Fold change vs veh, HNRNPA1 / RFU, RNF170 / Fold change vs veh, RNF170 / RFU, ZNF28 / Fold change vs veh, ZNF28 / RFU, RNGTT / Fold change vs veh, RNGTT / RFU, OGT / Fold change vs veh, OGT / RFU, BRD1 / Fold change vs veh, BRD1 / RFU, MARS / Fold change vs veh, MARS / RFU, ZNF655 / Fold change vs veh, ZNF655 / RFU, FAHD1 / Fold change vs veh, FAHD1 / RFU, BDP1 / Fold change vs veh, BDP1 / RFU, LRRCC1 / Fold change vs veh, LRRCC1 / RFU, ARID1A / Fold change vs veh, ARID1A / RFU, ZNF146 / Fold change vs veh, ZNF146 / RFU, ZNF330 / Fold change vs veh, ZNF330 / RFU, GPN3 / Fold change vs veh, GPN3 / RFU, C9orf123 / Fold change vs veh, C9orf123 / RFU, N4BP2L2 / Fold change vs veh, N4BP2L2 / RFU, ARFIP1 / Fold change vs veh, ARFIP1 / RFU, FAM179B / Fold change vs veh, FAM179B / RFU, BCL10 / Fold change vs veh, BCL10 / RFU, UHRF1BP1L / Fold change vs veh, UHRF1BP1L / RFU, BET1 / Fold change vs veh, BET1 / RFU, CNOT2 / Fold change vs veh, CNOT2 / RFU, ZNF268 / Fold change vs veh, ZNF268 / Fold change vs veh, ZNF507 / RFU, DGCR2 / Fold change vs veh, DGCR2 / RFU, WDSUB1 / Fold change vs veh, WDSUB1 / Fold change vs veh, HSP90B1 /// MIR3652 / RFU, ADSS / Fold change vs veh, ADSS / RFU, GK / Fold change vs veh, GK / RFU, ZNF148 / Fold change vs veh, ZNF148 / RFU, TAF9 / Fold change vs veh, TAF9 / RFU, SLC1A5 / Fold change vs veh, SLC1A5 / RFU, SLMO2 / Fold change vs veh, SLMO2 / RFU, ABCC4 / Fold change vs veh, ABCC4 / RFU, LOC101060439 /// RAP1B / Fold change vs veh, LOC101060439 /// RAP1B / RFU, RFX7 / Fold change vs veh, RFX7 / RFU, GTPBP10 / Fold change vs veh, GTPBP10 / RFU, CNEP1R1 / Fold change vs veh, CNEP1R1 / RFU, BIVM-ERCC5 /// ERCC5 / Fold change vs veh, BIVM-ERCC5 /// ERCC5 / RFU, ILF3 / Fold change vs veh, ILF3 / RFU 11762660_at / Fold change /veh 11762660_at / RFU VCAN (11757783_s_at) / Fold change /veh VCAN (11757783_s_at) / RFU DDX43 (11728927_at) / Fold change /veh DDX43 (11728927_at) / RFU KRT8 (11758188_x_at) / Fold change /veh KRT8 (11758188_x_at) / RFU NKD1 (11759106_at) / Fold change /veh NKD1 (11759106_at) / RFU SRD5A1 (11742802_a_at) / Fold change /veh SRD5A1 (11742802_a_at) / RFU TPSAB1 /// TPSB2 (11721975_s_at) / Fold change /veh TPSAB1 /// TPSB2 (11721975_s_at) / RFU GSTM3 (11746129_a_at) / Fold change /veh GSTM3 (11746129_a_at) / RFU IL23R (11737362_x_at) / Fold change /veh IL23R (11737362_x_at) / RFU TMEM51 (11727254_a_at) / Fold change /veh TMEM51 (11727254_a_at) / RFU PIWIL2 (11732686_x_at) / Fold change /veh PIWIL2 (11732686_x_at) / RFU ORM1 (11744905_x_at) / Fold change /veh ORM1 (11744905_x_at) / RFU CCDC152 (11743942_at) / Fold change /veh CCDC152 (11743942_at) / RFU ECM1 (11717891_a_at) / Fold change /veh ECM1 (11717891_a_at) / RFU IL23R (11748794_a_at) / Fold change /veh IL23R (11748794_a_at) / RFU TNFAIP8L3 (11732012_x_at) / Fold change /veh TNFAIP8L3 (11732012_x_at) / RFU MBOAT4 (11741988_at) / Fold change /veh MBOAT4 (11741988_at) / RFU 11764193_at / Fold change /veh 11764193_at / RFU TMEM53 (11763286_at) / Fold change /veh TMEM53 (11763286_at) / RFU MAGEB2 (11727129_at) / Fold change /veh MAGEB2 (11727129_at) / RFU TMEM200A (11744735_a_at) / Fold change /veh TMEM200A (11744735_a_at) / RFU CCDC152 (11751479_a_at) / Fold change /veh CCDC152 (11751479_a_at) / RFU FAM211A (11726209_a_at) / Fold change /veh FAM211A (11726209_a_at) / RFU RGS16 (11746705_a_at) / Fold change /veh RGS16 (11746705_a_at) / RFU VCAN (11755009_s_at) / Fold change /veh VCAN (11755009_s_at) / RFU RHOB (11743442_s_at) / Fold change /veh RHOB (11743442_s_at) / RFU RGS16 (11720943_a_at) / Fold change /veh RGS16 (11720943_a_at) / RFU RGS16 (11720944_at) / Fold change /veh RGS16 (11720944_at) / RFU, VPS4B / Fold change vs veh, VPS4B / RFU, CREB1 / Fold change vs veh, CREB1 / RFU, DNAJC13 / Fold change vs veh, DNAJC13 / RFU, GNAQ / Fold change vs veh, GNAQ / RFU, CDK5R1 / Fold change vs veh, CDK5R1 / RFU, ZRANB3 / Fold change vs veh, ZRANB3 / RFU, CUL4A / Fold change vs veh, CUL4A / RFU, CCNY / Fold change vs veh, CCNY / RFU, UFL1 / Fold change vs veh, UFL1 / RFU, COG3 / Fold change vs veh, COG3 / RFU, DIAPH2 / Fold change vs veh, DIAPH2 / RFU, SKA2 / Fold change vs veh, SKA2 / RFU, AFF3 / Fold change vs veh, AFF3 / RFU, LMF1 / Fold change vs veh, LMF1 / RFU, IPO11 / Fold change vs veh, IPO11 / RFU, DFFB / Fold change vs veh, DFFB / RFU, FOXP1 / Fold change vs veh, FOXP1 / RFU, CARD8 / Fold change vs veh, CARD8 / RFU, STRN3 / Fold change vs veh, STRN3 / RFU, ADK / Fold change vs veh, ADK / RFU, RASSF2 / Fold change vs veh, RASSF2 / RFU, WIPF1 / Fold change vs veh, WIPF1 / RFU, LARP1B / Fold change vs veh, LARP1B / RFU, RASA1 / Fold change vs veh, RASA1 / RFU, RB1 / Fold change vs veh, RB1 / RFU, PPFIA1 / Fold change vs veh, PPFIA1 / RFU, MAT2A / Fold change vs veh, MAT2A / RFU, CCT5 / Fold change vs veh, CCT5 / RFU, WDR92 / Fold change vs veh, WDR92 / RFU, CUX1 / Fold change vs veh, CUX1 / RFU, TTC7A / Fold change vs veh, TTC7A / RFU, TMEM135 / Fold change vs veh, TMEM135 / RFU, DEPTOR / Fold change vs veh, DEPTOR / RFU, CPM / Fold change vs veh, CPM / RFU, DNAJB6 / Fold change vs veh, DNAJB6 / RFU, CACNA2D3 / Fold change vs veh, CACNA2D3 / RFU, DTX4 / Fold change vs veh, DTX4 / RFU, TFCP2 / Fold change vs veh, TFCP2 / RFU, GMCL1 /// GMCL1P1 / Fold change vs veh, GMCL1 /// GMCL1P1 / RFU, AEBP2 / Fold change vs veh, AEBP2 / RFU, SNHG1 /// SNORD22 /// SNORD25 /// SNORD26 /// SNORD27 /// SNORD28 /// SNORD29 /// SNORD31 / Fold change vs veh, SNHG1 /// SNORD22 /// SNORD25 /// SNORD26 /// SNORD27 /// SNORD28 /// SNORD29 /// SNORD31 / Fold change (Aza/veh), C12orf56 (ProbeSet 11735607_a_at) / Fold change (ACY-1035/veh), C12orf56 (ProbeSet 11735607_a_at) / Fold change (Aza/veh), FGFR1OP (ProbeSet 11751329_s_at) / Fold change (ACY-1035/veh), FGFR1OP (ProbeSet 11751329_s_at) / Fold change (Aza/veh), VPS36 (ProbeSet 11739960_a_at) / Fold change (ACY-1035/veh), VPS36 (ProbeSet 11739960_a_at) / RFU SYPL1 (11715823_x_at) / Fold change /veh SYPL1 (11715823_x_at) / RFU IGFBP7 (11715501_s_at) / Fold change /veh IGFBP7 (11715501_s_at) / RFU REEP3 (11722064_at) / Fold change /veh REEP3 (11722064_at) / RFU IGLL1 (11728026_x_at) / Fold change /veh IGLL1 (11728026_x_at): dose or concentration left out as unconfirmed
Settings: ProbeSet 11722463_a_at; LIST B

## Nc1ccc(-c2cccs2)cc1NC(=O)c1ccc2c(c1)cc(C1CC1)n2CCN1CCOCC1 [ACY-1035]
  RFU, TNKS2: 53.51 RFU
